Assay results as given in patent US10064891B2, “Assembly of micelle aggregates of surfactant micelles and silver nanoparticles and use as antibacterial agent” (Otago Innovation Limited, priority 2013, dated 2018).

Key:
[1] = Determination of cmc / cmceff by electrical conductivity; assay type: physicochemical; settings: H2O, 25° C.; for cmc of pure surfactant (cmceff at 0 mM AgNO3): no AgNO3
Procedure: Electrical conductivity measurements (mS cm^−1) were performed on five SDS solutions over a range of concentrations, with each solution containing a different amount of added AgNO3. […] Standard deviations for each data point are <0.014 mS cm^−1 in all cases. Closed symbols represent the data points used for the linear regression analysis below the cmc, and the open symbols for the analysis above the cmc. For each sample, regardless of the electrolyte content, as the SDS concentration was varied, an inflection point in the electrical conductivity was observed, indicating the cmc. A linear regression analysis of the conductivity data of each of the five samples was performed above and below the inflection point. In all cases, no significant deviations from linearity were observed over the concentration ranges. A dashed line has been added to one data set to indicate the point of intersection of the two corresponding linear equations, thus indicating the cmc. The cmc of pure SDS in H2O in the absence of AgNO3 was determined to be 8.1 mM. The curve represents a critical ‘cmc boundary’ for the SDS/AgNO3 system, i.e. the cmceff of SDS at a given AgNO3 concentration between 0-10 mM.
Following the procedure detailed in Example 1, electrical conductivity measurements were performed on sodium dodecylbenzenesulfonate (SDBS), sodium lauryl ether sulfate (SLES) and ammonium lauryl sulfate (ALS) solutions containing different amounts of added AgNO3 in order to determine the cmceff of each surfactant. […] Linear regression analysis was performed as described in Example 1. The cmc of pure SDBS, SLES and ALS at 25° C. was determined to be 1.4, 3.1 and 6.7 mM, respectively.

[2] = absence of any salts; cited from earlier work

Compound	Cmceff ([1]; [AgNO3] 0.6 mM) [mM]	cmc of pure surfactant (cmceff at 0 mM AgNO3) [1] [mM]	cmc of pure SDS in water (known) [2] [mM]	Cmceff ([1]; [AgNO3] 2.9 mM) [mM]
CCCCCCCCCCCCOS(=O)(=O)O.N [ALS, ammonium lauryl sulfate]	4.6	6.7	–	–
CCCCCCCCCCCCOS(=O)(=O)[O-].[Na+] [SDS, sodium dodecyl sulfate]	–	8.1	8.0 to 8.3	–
sodium lauryl ether sulfate [SLES]	2.1	3.1	–	1.9
